How the values were obtained:
S. pneumoniae D39V [1] = assay: fitness (endpoint OD595 vs no drug) (fraction); higher = more growth
Method in brief: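 Fitness expresses the optical density reached at the stationary-phase transition as a fraction of the robust mean of no-drug control wells. It is capped at 1. Measurements were OD595 every 30 min for 14 h at 37 °C after inoculation of 384-well plates at OD595 0.01 (30 µl, or 55 µl for S. pneumoniae), minus the first reading.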

B. subtilis 168 = assay: Bliss interaction score (quartile over a dose matrix) (fitness difference); higher = more antagonism (negative = synergy)
Method in brief: (§1)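 Fitness was defined as normalised growth: OD595 at the start of stationary phase divided by the plate's robust no-drug mean and capped at 1. Single-drug fitness was inferred from combination measurements. The Bliss score is observed fitness minus the product of the single-drug values, summarised by quartiles across technical, biological and donor/recipient replicates.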

S. aureus DSM 20231 = assay: as above
Method in brief: as §1

S. aureus Newman = assay: as above
Method in brief: as §1

S. pneumoniae D39V [2] = assay: as above
Method in brief: as §1
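Throughout, for Bliss interaction score (quartile over a dose matrix): first quartile when negative (synergy) and third quartile when positive (antagonism).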
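Throughout, for fitness (endpoint OD595 vs no drug): OD595 on entry to stationary phase over no-drug wells; at most 1.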

CC1(C)S[C@@H]2[C@H](NC(=O)[C@H](N)c3ccc(O)cc3)C(=O)N2[C@H]1C(=O)O [Amoxicillin] + C[C@H]1COc2c(N3CCN(C)CC3)c(F)cc3c(=O)c(C(=O)O)cn1c23 [Levofloxacin]
fitness, S. pneumoniae D39V [1]
Conditions | partner 0.1725 µg/mL | partner 0.2 µg/mL | partner 0.345 µg/mL | partner 0.4 µg/mL | partner 0.69 µg/mL | partner 0.8 µg/mL
first compound 0.0008 µg/mL | 0.955 | – | 0.911 | – | 0.591 | –
first compound 0.0015 µg/mL | 0.976 | 0.951 | 0.906 | 0.868 | 0.57 | 0.774
first compound 0.003 µg/mL | 0.96 | 0.866 | 0.89 | 0.893 | 0.561 | 0.775

fitness, S. pneumoniae D39V [1], one replicate
Conditions | partner 0.2 µg/mL | partner 0.4 µg/mL | partner 0.8 µg/mL
first compound 0.0008 µg/mL | 0.959 | 0.881 | 0.718
first compound 0.006 µg/mL | 0.5 | 0.509 | 0.399

Conditions | Bliss interaction score
B. subtilis 168 | 0.0559
S. aureus DSM 20231 | 0.0396
S. aureus Newman | -0.0695
S. pneumoniae D39V [2] | 0.142

CCCCCCCCCC(=O)N[C@@H](Cc1c[nH]c2ccccc12)C(=O)N[C@H](CC(N)=O)C(=O)N[C@@H](CC(=O)O)C(=O)N[C@@H]1C(=O)NCC(=O)N[C@@H](CCCN)C(=O)N[C@@H](CC(=O)O)C(=O)N[C@H](C)C(=O)N[C@@H](CC(=O)O)C(=O)NCC(=O)N[C@H](CO)C(=O)N[C@@H]([C@H](C)CC(=O)O)C(=O)N[C@@H](CC(=O)c2ccccc2N)C(=O)O[C@@H]1C [Daptomycin] + Clc1ccc(COC(Cn2ccnc2)c2ccc(Cl)cc2Cl)c(Cl)c1 [Miconazole]
fitness, S. pneumoniae D39V [1]
Conditions | partner 1.073 µg/mL | partner 1.25 µg/mL | partner 2.145 µg/mL | partner 2.5 µg/mL | partner 4.29 µg/mL | partner 5 µg/mL
first compound 1 µg/mL | 0.962 | 0.922 | 0.967 | 0.913 | 0.841 | 0.898
first compound 2 µg/mL | 0.984 | 0.888 | 0.981 | 0.896 | 0.881 | 0.86
first compound 4 µg/mL | ≥ 1 | 0.847 | ≥ 1 | 0.813 | 0.882 | 0.836

Conditions | Bliss interaction score
B. subtilis 168 | 0.0988
S. aureus DSM 20231 | -0.0305
S. aureus Newman | -0.0424
S. pneumoniae D39V [2] | 0.0797

CN(C)C(=O)C(CCN1CCC(O)(c2ccc(Cl)cc2)CC1)(c1ccccc1)c1ccccc1 [Loperamide] + CO[C@H]1/C=C/O[C@@]2(C)Oc3c(C)c(O)c4c(O)c(c(/C=N/N5CCN(C)CC5)c(O)c4c3C2=O)NC(=O)/C(C)=C\C=C\[C@H](C)[C@H](O)[C@@H](C)[C@@H](O)[C@@H](C)[C@H](OC(C)=O)[C@@H]1C [Rifampicin]
fitness, S. pneumoniae D39V [1]
Conditions | first compound 17.14 µg/mL | first compound 34.28 µg/mL
partner 0.05 µg/mL | 0.875 | –
partner 0.2 µg/mL | 0.145 | 0.136

fitness, S. pneumoniae D39V [1], one replicate
Conditions | first compound 20 µg/mL | first compound 40 µg/mL | first compound 68.57 µg/mL | first compound 80 µg/mL
partner 0.025 µg/mL | 0.92 | 0.921 | – | 0.701
partner 0.05 µg/mL | – | – | 0.833 | –
partner 0.1 µg/mL | – | – | 0.544 | –
partner 0.2 µg/mL | 0 | 0 | 0.14 | 0

Conditions | Bliss interaction score
B. subtilis 168 | 0.161
S. aureus DSM 20231 | -0.0475
S. aureus Newman | 0.012
S. pneumoniae D39V [2] | -0.0733

C[C@H]1COc2c(N3CCN(C)CC3)c(F)cc3c(=O)c(C(=O)O)cn1c23 [Levofloxacin] + CN[C@H](CC(C)C)C(=O)N[C@H]1C(=O)N[C@@H](CC(N)=O)C(=O)N[C@H]2C(=O)N[C@H]3C(=O)N[C@H](C(=O)N[C@H](C(=O)O)c4cc(O)cc(O)c4-c4cc3ccc4O)[C@H](O)c3ccc(c(Cl)c3)Oc3cc2cc(c3O[C@@H]2O[C@H](CO)[C@@H](O)[C@H](O)[C@H]2O[C@H]2C[C@](C)(N)[C@H](O)[C@H](C)O2)Oc2ccc(cc2Cl)[C@H]1O [Vancomycin]
fitness, S. pneumoniae D39V [1]
Conditions | first compound 0.1725 µg/mL | first compound 0.2 µg/mL | first compound 0.345 µg/mL | first compound 0.4 µg/mL | first compound 0.69 µg/mL | first compound 0.8 µg/mL
partner 0.03125 µg/mL | – | 0.931 | – | 0.834 | – | 0.365
partner 0.0625 µg/mL | – | 0.893 | – | 0.812 | – | 0.436
partner 0.125 µg/mL | 0.857 | 0.704 | 0.818 | 0.605 | – | 0.292
partner 0.25 µg/mL | – | – | – | – | 0.213 | –
partner 0.5 µg/mL | 0.0371 | – | 0.0522 | – | 0.0787 | –

Conditions | Bliss interaction score
B. subtilis 168 | 0.0448
S. aureus DSM 20231 | -0.0494
S. aureus Newman | -0.0425
S. pneumoniae D39V [2] | -0.1

CC1(C)S[C@@H]2[C@H](NC(=O)[C@H](N)c3ccc(O)cc3)C(=O)N2[C@H]1C(=O)O [Amoxicillin] + CCC(C)C1C(=O)NC(=C)C(=O)NC(C(=O)NC(CSCC(C(=O)N1)NC(=O)/C(=C/C)/NC(=O)C(C(C)CC)N)C(=O)NC2C(SCC(NC(=O)CNC(=O)C3CCCN3C2=O)C(=O)NC(CCCCN)C(=O)NC4C(SCC(NC(=O)CNC(=O)C(NC(=O)C(NC(=O)C(NC(=O)CNC4=O)C)CC(C)C)CCSC)C(=O)NC(CC(=O)N)C(=O)NC(CCSC)C(=O)NC(CCCCN)C(=O)NC5C(SCC6C(=O)NC(C(=O)NC(CSC(C(C(=O)N6)NC(=O)C(NC5=O)C)C)C(=O)NC(CO)C(=O)NC(C(C)CC)C(=O)NC(CC7=CN=CN7)C(=O)NC(C(C)C)C(=O)NC(=C)C(=O)NC(CCCCN)C(=O)O)CC8=CN=CN8)C)C)C)CC(C)C [Nisin]
fitness, S. pneumoniae D39V [1], main component drawn
Conditions | partner 0.4275 µg/mL | partner 0.855 µg/mL | partner 1.6 µg/mL | partner 1.71 µg/mL | partner 3.2 µg/mL | partner 6.4 µg/mL
first compound 0.0008 µg/mL | ≥ 1 | 0.534 | – | 0.106 | – | –
first compound 0.0015 µg/mL | 0.981 | – | 0.135 | 0.119 | 0.0433 | 0.0441
first compound 0.003 µg/mL | 0.953 | 0.705 | 0.38 | 0.13 | 0.0777 | 0.0249

fitness, S. pneumoniae D39V [1], one replicate, main component drawn
Conditions | partner 1.6 µg/mL | partner 3.2 µg/mL | partner 6.4 µg/mL
first compound 0.0008 µg/mL | 0.0458 | 0.094 | 0.0228
first compound 0.006 µg/mL | 0.289 | 0.0544 | 0.0443

main component drawn
Conditions | Bliss interaction score
B. subtilis 168 | -0.105
S. aureus DSM 20231 | -0.111
S. aureus Newman | -0.0715
S. pneumoniae D39V [2] | 0.09

From the supplement of paper PMC10627819
